One experiment addresses T1, F508delCFTR (Homo sapiens, UniProt P13569, DEL508-508).
T1 construct: expressed in transfected cells; host or cells: CFBE41o- human lung-derived epithelial cell line, doxycycline-inducible expression
Description: Cell Surface Expression-Horse Radish Peroxidase (CSE-HRP) assay in CFBE41o-F508delCFTR-HRP cells. The experiment is classed as cell-based. The following applies: for EC50: CFBE41o-F508delCFTR-HRP cells, 18-24 hours at 33° C., luminescence; for Maximum % activity (without co-corrector) / Maximum % activity (with co-corrector): normalized to on-plate positive control corrector (2 μM). Summed up:
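Test compounds were tested alone or alongside a co-corrector (2 μM), 8-point 3-fold series from 20 or 30 μM, for 18–24 h at 33 °C on doxycycline-induced CFBE41o-F508delCFTR-HRP cells. After washing, luminol luminescence reported cell-surface HRP-tagged CFTR, normalized to the positive control (% activity). EC50 was fitted with a variable Hill slope sigmoid from triplicate plates; Z′ >0.5 required.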

Another experiment concerns the target T2, F508del/F508del CFTR (Homo sapiens, UniProt P13569, DEL508-508).
T2 construct: cells isolated from CF patients with the homozygous mutation; endogenous in cells; host or cells: primary human bronchial epithelial (hBE) cells from CF patients homozygous for F508del
Description: Trans-Epithelial Current Clamp (TECC) assay using primary human bronchial epithelial cells. The experiment is classed as cell-based. The note with it: for Emax (% Dual): maximum percent activity relative to positive control (co-corrector 0.15 μM + potentiator 0.45 μM = 100%), primary hBE cells F508del/F508del; for EC50: primary hBE cells homozygous F508del/F508del, test C2 corrector with co-corrector and potentiator, 18-24 hours at 37° C., equivalent CFTR current (IEQ)/AUC. Summed up:
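Readout is the equivalent CFTR current (IEQ, from offset-corrected VT and RT) plus AUC from forskolin peak to bumetanide addition, recorded on TECC-24 at 36.5° C. Beforehand, homozygous F508del hBE cultures received correctors with co-corrector and potentiator basolaterally for 18-24 h at 37° C.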

The mark [1] stands for this setting: with co-corrector (2 μM), read-out: EC50 (with co-corrector).
The mark [2] stands for this setting: without co-corrector, read-out: EC50 (without co-corrector).

Where two headings read alike, the source gives them in different places.

T2 sequence (P13569 with tags, fused parts or gaps DEL508-508): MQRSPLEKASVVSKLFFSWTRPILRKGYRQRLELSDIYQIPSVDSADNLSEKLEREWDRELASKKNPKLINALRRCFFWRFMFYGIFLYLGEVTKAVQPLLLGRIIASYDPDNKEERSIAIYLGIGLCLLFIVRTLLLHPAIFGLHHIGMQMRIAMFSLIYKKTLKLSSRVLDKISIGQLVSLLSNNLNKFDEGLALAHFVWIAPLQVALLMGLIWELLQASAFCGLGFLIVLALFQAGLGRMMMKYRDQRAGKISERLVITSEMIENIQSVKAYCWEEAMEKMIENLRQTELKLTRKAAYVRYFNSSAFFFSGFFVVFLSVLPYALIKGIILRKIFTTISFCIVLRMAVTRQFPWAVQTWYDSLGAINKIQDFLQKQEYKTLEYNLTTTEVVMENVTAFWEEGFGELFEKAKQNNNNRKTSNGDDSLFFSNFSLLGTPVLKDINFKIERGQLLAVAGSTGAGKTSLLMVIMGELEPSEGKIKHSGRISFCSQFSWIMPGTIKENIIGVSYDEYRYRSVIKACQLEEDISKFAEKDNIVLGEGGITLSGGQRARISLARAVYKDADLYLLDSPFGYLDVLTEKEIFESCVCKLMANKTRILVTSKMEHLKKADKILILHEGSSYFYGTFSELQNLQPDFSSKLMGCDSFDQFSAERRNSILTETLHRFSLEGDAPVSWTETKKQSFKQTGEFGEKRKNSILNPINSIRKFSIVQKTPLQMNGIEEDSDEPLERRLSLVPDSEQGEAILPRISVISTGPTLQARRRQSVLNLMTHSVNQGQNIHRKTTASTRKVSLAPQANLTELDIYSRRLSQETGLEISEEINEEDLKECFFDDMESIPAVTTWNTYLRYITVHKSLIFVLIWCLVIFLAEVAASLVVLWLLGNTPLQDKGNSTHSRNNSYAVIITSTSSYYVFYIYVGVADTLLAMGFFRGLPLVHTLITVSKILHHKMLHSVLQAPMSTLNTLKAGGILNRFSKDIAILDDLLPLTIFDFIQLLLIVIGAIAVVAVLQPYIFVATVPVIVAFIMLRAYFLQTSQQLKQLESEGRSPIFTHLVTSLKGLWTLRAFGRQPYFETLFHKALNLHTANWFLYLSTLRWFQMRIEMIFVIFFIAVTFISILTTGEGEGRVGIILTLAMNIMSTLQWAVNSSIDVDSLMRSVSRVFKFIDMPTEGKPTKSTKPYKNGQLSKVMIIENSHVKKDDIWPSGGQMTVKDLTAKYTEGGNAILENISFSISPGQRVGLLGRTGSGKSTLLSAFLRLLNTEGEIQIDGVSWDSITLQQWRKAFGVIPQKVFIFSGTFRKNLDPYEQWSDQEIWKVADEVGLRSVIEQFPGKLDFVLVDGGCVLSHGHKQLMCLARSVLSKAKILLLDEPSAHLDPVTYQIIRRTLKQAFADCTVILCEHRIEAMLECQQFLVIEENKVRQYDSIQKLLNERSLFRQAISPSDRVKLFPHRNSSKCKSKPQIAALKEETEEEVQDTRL
T1 sequence (P13569 with tags, fused parts or gaps DEL508-508): as above

On to `COc1ccc(C)cc1[C@]1(C(=O)NS(=O)(=O)c2cccc3nc(C)ccc23)C[C@@H]1c1ccc(C)nc1OC` (single isomer, unassigned) [Example 86], for which the EC50 worked out at 1440 nM on F508delCFTR (setting [1]), 2210 nM on F508delCFTR (setting [2]) and 24.1 nM on F508del/F508del CFTR. Further, on F508del/F508del CFTR, the “Emax (% Dual)” value amounted to 176 % Dual.

Consider `COc1ccc(C)cc1[C@@]1(C(=O)NS(=O)(=O)c2cccc3nc(C)ccc23)C[C@H]1c1cncc(C)n1` (racemic) [Example 35, rac-(1r,2r)-1-(2-methoxy-5-methylphenyl)-2-(6-methylpyrazin-2-yl)-N-(2-methylquinoline-5-sulfonyl)cyclopropane-1-carboxamide], for which the EC50 at F508delCFTR (setting [1]) was determined as 1220 nM; on F508delCFTR (setting [2]), 1710 nM; on F508del/F508del CFTR it was 47.9 nM. In addition, the “Maximum % activity (without co-corrector)” value at F508delCFTR (without co-corrector) is 582%. The “Emax (% Dual)” value at F508del/F508del CFTR was determined as 331 % Dual.

On to `COc1ccc(C)cc1[C@]1(C(=O)NS(=O)(=O)c2cccc3nc(C)ccc23)C[C@@H]1c1ccc(C(F)(F)F)cc1` (single isomer, unassigned) [Example 18], for which the concentration for a half-maximal effect (EC50) at F508delCFTR (setting [2]) worked out at 198 nM. For the same compound, at F508del/F508del CFTR, the “Emax (% Dual)” value is reported as 270 % Dual and the EC50 came to 1.3 nM.

In the case of `COc1ccc([C@H]2C[C@@]2(C(=O)NS(=O)(=O)c2cccc3nc(C)ccc23)c2cc(C)ccc2OC)c(C)n1` [Example 72, (1S,2R)-1-(2-methoxy-5-methylphenyl)-2-(6-methoxy-2-methylpyridin-3-yl)-N-(2-methylquinoline-5-sulfonyl)cyclopropane-1-carboxamide], the EC50 was 1540 nM at F508delCFTR (setting [1]), 3330 nM on F508delCFTR (setting [2]) and 13.6 nM at F508del/F508del CFTR. Besides, the “Maximum % activity (without co-corrector)” value on F508delCFTR (without co-corrector) was 651%. For the same compound, the “Emax (% Dual)” value on F508del/F508del CFTR was determined as 359 % Dual.

`COc1ccc(C)cc1[C@]1(C(=O)NS(=O)(=O)c2cccc3nc(C)ccc23)C[C@@H]1c1cccc(C(F)F)n1` [Example 77, (1S,2S)-2-[6-(difluoromethyl)pyridin-2-yl]-1-(2-methoxy-5-methylphenyl)-N-(2-methylquinoline-5-sulfonyl)cyclopropane-1-carboxamide]: the EC50 at F508delCFTR (setting [1]) worked out at 327 nM; on F508delCFTR (setting [2]) it was 1660 nM; on F508del/F508del CFTR it was 0.4 nM. Moreover, at F508del/F508del CFTR, the “Emax (% Dual)” value turned out to be 289 % Dual.

As to `COc1ccc(C)cc1[C@@]1(C(=O)NS(=O)(=O)c2cccc3nc(C)ccc23)C[C@H]1c1cncc(F)c1` (single isomer, unassigned) [Example 53], the EC50 on F508delCFTR (setting [1]) was 2610 nM; at F508delCFTR (setting [2]) it was 3980 nM; at F508del/F508del CFTR, above 300 nM. The “Maximum % activity (with co-corrector)” value at F508delCFTR (with co-corrector (2 μM)) worked out at 625%. For the same compound, the “Maximum % activity (without co-corrector)” value on F508delCFTR (without co-corrector) is 229%. Further, on F508del/F508del CFTR, the “Emax (% Dual)” value was found to be 169 % Dual.

As for `COc1ccc(C)cc1[C@]1(C(=O)NS(=O)(=O)c2cccc3nc(C)ccc23)C[C@@H]1c1cnc(C)c(F)c1` (single isomer, unassigned) [Example 100], the EC50 at F508delCFTR (setting [1]) stood at 2780 nM; at F508delCFTR (setting [2]) it was 4490 nM; on F508del/F508del CFTR, 114 nM. Besides, the “Emax (% Dual)” value on F508del/F508del CFTR is 207 % Dual.

Turning to `COc1cccc([C@H]2C[C@@]2(C(=O)NS(=O)(=O)c2cccc3nc(C)ccc23)c2cc(C)ccc2OC)c1` (single isomer, unassigned) [Example 28], the EC50 on F508delCFTR (setting [1]) turned out to be 417 nM; on F508delCFTR (setting [2]) it was 951 nM; on F508del/F508del CFTR, 2.6 nM. Further, on F508del/F508del CFTR, the “Emax (% Dual)” value is recorded as 304 % Dual.

Take `CCOc1ccc([C@@H]2C[C@]2(C(=O)NS(=O)(=O)c2cccc3nc(C)ccc23)c2cc(C)ccc2OC)cn1` [Example 59, (1R,2S)-2-(6-ethoxypyridin-3-yl)-1-(2-methoxy-5-methylphenyl)-N-(2-methylquinoline-5-sulfonyl)cyclopropane-1-carboxamide]: the EC50 on F508delCFTR (setting [1]) stood at 779 nM; at F508delCFTR (setting [2]), 1520 nM; on F508del/F508del CFTR, 63.8 nM. Moreover, the “Maximum % activity (without co-corrector)” value at F508delCFTR (without co-corrector) is given as 438%. Also, on F508del/F508del CFTR, the “Emax (% Dual)” value is given as 161 % Dual.

For `COc1ccc(C)cc1[C@]1(C(=O)NS(=O)(=O)c2cccc3nc(C)ccc23)C[C@@H]1c1ccc(C(F)F)nc1` [Example 70, (1S,2R)-2-[6-(difluoromethyl)pyridin-3-yl]-1-(2-methoxy-5-methylphenyl)-N-(2-methylquinoline-5-sulfonyl)cyclopropane-1-carboxamide], the EC50 was 2600 nM on F508delCFTR (setting [1]), 4230 nM on F508delCFTR (setting [2]) and 11.8 nM at F508del/F508del CFTR. Also, the “Maximum % activity (without co-corrector)” value at F508delCFTR (without co-corrector) is listed as 482%. For the same compound, the “Emax (% Dual)” value on F508del/F508del CFTR is 291 % Dual.

As for `COc1ccc(C)cc1C1(C(=O)NS(=O)(=O)c2cccc3nc(C)ccc23)CC1c1ccc(C(F)(F)F)cc1` (racemic) [Example 5, rac-(1r,2s)-1-(2-methoxy-5-methylphenyl)-N-(2-methylquinoline-5-sulfonyl)-2-[4-(trifluoromethyl)phenyl]cyclopropane-1-carboxamide], the EC50 on F508delCFTR (setting [1]) was determined as 187 nM; on F508delCFTR (setting [2]) it was 306 nM; at F508del/F508del CFTR, 3.5 nM. Besides, the “Maximum % activity (without co-corrector)” value at F508delCFTR (without co-corrector) is recorded as 741%. For the same compound, on F508del/F508del CFTR, the “Emax (% Dual)” value is 253 % Dual.

Consider `COc1cnc([C@H]2C[C@@]2(C(=O)NS(=O)(=O)c2cccc3nc(C)ccc23)c2cc(C)ccc2OC)cn1` (single isomer, unassigned) [Example 48], for which the figures for the EC50 at F508delCFTR (setting [1]), at F508delCFTR (setting [2]) and at F508del/F508del CFTR were 1080 nM, 1780 nM and 47.1 nM, respectively. Also, the “Maximum % activity (without co-corrector)” value on F508delCFTR (without co-corrector) is reported as 790%. Further, the “Emax (% Dual)” value on F508del/F508del CFTR amounted to 401 % Dual.

`COc1ccc(C)cc1[C@]1(C(=O)NS(=O)(=O)c2cccc3nc(C)ccc23)C[C@@H]1c1cccnc1OC` (single isomer, unassigned) [Example 50]: the EC50 worked out at 954 nM on F508delCFTR (setting [1]), 2340 nM on F508delCFTR (setting [2]) and 5.2 nM on F508del/F508del CFTR. Further, on F508delCFTR (without co-corrector), the “Maximum % activity (without co-corrector)” value is 951%. Moreover, the “Emax (% Dual)” value on F508del/F508del CFTR was determined as 359 % Dual.

Regarding `COc1ccc([C@@H]2C[C@]2(C(=O)NS(=O)(=O)c2cccc3nc(C)ccc23)c2cc(C)ccc2OC)cc1` (single isomer, unassigned) [Example 16], the concentration giving a half-maximal response (EC50) on F508delCFTR (setting [1]) worked out at 393 nM; on F508delCFTR (setting [2]) it was 328 nM; on F508del/F508del CFTR, 8.4 nM. For the same compound, the “Maximum % activity (without co-corrector)” value on F508delCFTR (without co-corrector, 2 µM) was found to be 784%. Also, at F508del/F508del CFTR, the “Emax (% Dual)” value is 308 % Dual.

Take `COc1ccc(C)cc1[C@]1(C(=O)NS(=O)(=O)c2cccc3nc(C)ccc23)C[C@@H]1c1cccc(C(C)C)n1` [Example 57, (1S,2S)-1-(2-methoxy-5-methylphenyl)-N-(2-methylquinoline-5-sulfonyl)-2-[6-(propan-2-yl)pyridin-2-yl]cyclopropane-1-carboxamide]: the EC50 at F508delCFTR (setting [1]) turned out to be 510 nM; on F508delCFTR (setting [2]) it was 1130 nM; on F508del/F508del CFTR, 19.2 nM. Also, the “Emax (% Dual)” value at F508del/F508del CFTR stood at 253 % Dual.

As to `CCOc1cccc([C@H]2C[C@@]2(C(=O)NS(=O)(=O)c2cccc3nc(C)ccc23)c2cc(C)ccc2OC)n1` [Example 55, (1S,2S)-2-(6-ethoxypyridin-2-yl)-1-(2-methoxy-5-methylphenyl)-N-(2-methylquinoline-5-sulfonyl)cyclopropane-1-carboxamide], the EC50 came out at 339 nM on F508delCFTR (setting [1]), 1000 nM on F508delCFTR (setting [2]) and 5.86 nM at F508del/F508del CFTR. Moreover, the “Emax (% Dual)” value at F508del/F508del CFTR is recorded as 341 % Dual.

With `COc1ccc(C)cc1[C@@]1(C(=O)NS(=O)(=O)c2cccc3nc(C)ccc23)C[C@H]1c1cncc(C)n1` (single isomer, unassigned) [Example 45], the EC50 is 4620 nM at F508delCFTR (setting [1]), 6150 nM on F508delCFTR (setting [2]) and above 300 nM at F508del/F508del CFTR. For the same compound, the “Maximum % activity (with co-corrector)” value at F508delCFTR (with co-corrector (2 μM)) came to 427%. For the same compound, on F508delCFTR (without co-corrector), the “Maximum % activity (without co-corrector)” value stood at 128%. Besides, on F508del/F508del CFTR, the “Emax (% Dual)” value worked out at 179 % Dual.

For the compound `COc1ccc([C@@H]2C[C@]2(C(=O)NS(=O)(=O)c2cccc3nc(C)ccc23)c2cc(C)ccc2OC)cn1` [Example 33, (1R,2S)-1-(2-methoxy-5-methylphenyl)-2-(6-methoxypyridin-3-yl)-N-(2-methylquinoline-5-sulfonyl)cyclopropane-1-carboxamide], the concentration giving a half-maximal response (EC50) at F508delCFTR (setting [1]) amounted to 906 nM; on F508delCFTR (setting [2]), 1270 nM; on F508del/F508del CFTR, 48.8 nM. For the same compound, the “Maximum % activity (without co-corrector)” value at F508delCFTR (without co-corrector) came to 470%. Also, on F508del/F508del CFTR, the “Emax (% Dual)” value worked out at 215 % Dual.

On to `COc1ccc(C)cc1[C@@]1(C(=O)NS(=O)(=O)c2cccc3nc(C)ccc23)C[C@H]1c1cnc(C(C)C)cn1` (single isomer, unassigned) [Example 63], for which the EC50 on F508delCFTR (setting [1]) amounted to 890 nM; on F508delCFTR (setting [2]), 1740 nM; on F508del/F508del CFTR it was 97 nM. In addition, at F508delCFTR (with co-corrector (2 μM)), the “Maximum % activity (with co-corrector)” value worked out at 847%. Besides, the “Maximum % activity (without co-corrector)” value at F508delCFTR (without co-corrector) amounted to 399%. The “Emax (% Dual)” value on F508del/F508del CFTR was 315 % Dual.

The values above are taken from US20240043386A1, “Modulators of the Cystic Fibrosis Transmembrane Conductance Regulator Protein and Methods of Use” (AbbVie Global Enterprises Ltd., priority 2021, published 2024).
